Laboratory results from ChEMBL document CHEMBL1130994, “3-trifluoromethylcarbacephems: synthesis of broad spectrum antibacterial compounds” (1998).
Values after ≈ are worked out from the molar mass of the structure shown.

What was measured:
Format in all cases: functional
[1] = test system: Staphylococcus aureus; test: Compound was evaluated for inhibitory activity against X400S Staphylococcus aureus methicillin resistant and macrolide resistant
[2] = test system: Serratia; test: Compound was evaluated for inhibitory activity against SE3 Serratia
[3] = test system: Haemophilus influenzae; test: Compound was evaluated for inhibitory activity against 76 Haemophilus influenzae beta-lactamase
[4] = test system: Klebsiella pneumoniae; test: Compound was evaluated for inhibitory activity against KAE Klebsiella pneumoniae
[5] = test system: Klebsiella aerogenes; test: Compound was evaluated for inhibitory activity against EB17 Enterobacter aerogenes
[6] = test system: Staphylococcus aureus; test: Compound was evaluated for inhibitory activity against S13E Staphylococcus aureus methicillin resistant penicillin resistant macrolide sensitive (PBP2a producer)
[7] = test system: Serratia; test: Compound was evaluated for inhibitory activity against X99 Serratia
[8] = test system: Providencia stuartii; test: Compound was evaluated for inhibitory activity against PR33 Providencia stuartii
[9] = test system: Escherichia coli; test: Compound was evaluated for inhibitory activity against TEM Escherichia coli beta-lactamase
[10] = test system: Enterobacter cloacae; test: Compound was evaluated for inhibitory activity against 265a Enterobacter cloacae beta-lactamase
[11] = test system: Enterococcus faecalis; test: Compound was evaluated for inhibitory activity against 2041 Enterococcus faecalis Gp.D streptococcus penicillin susceptible
[12] = test system: Salmonella; test: Compound was evaluated for inhibitory activity against X514 Salmonella
[13] = test system: Providencia rettgeri; test: Compound was evaluated for inhibitory activity against C24 Providencia rettgeri
[14] = test system: Citrobacter; test: Compound was evaluated for inhibitory activity against CF17 Citrobacter
[15] = test system: Enterobacter cloacae; test: Compound was evaluated for inhibitory activity against EB5 Enterobacter cloacae
[16] = test system: Morganella morganii; test: Compound was evaluated for inhibitory activity against PR15 Morganella morganii
[17] = test system: Acinetobacter; test: Compound was evaluated for inhibitory activity against AC12 Acinetobacter
[18] = test system: Klebsiella pneumoniae; test: Compound was evaluated for inhibitory activity against X26 Klebsiella pneumoniae
[19] = test system: Streptococcus pneumoniae; test: Compound was evaluated for inhibitory activity against Park S Streptococcus pneumoniae
[20] = test system: Escherichia coli; test: Compound was evaluated for inhibitory activity against EC14 Escherichia coli sensitive
[21] = test system: Klebsiella aerogenes; test: Compound was evaluated for inhibitory activity against C32 Enterobacter aerogenes
[22] = test system: Haemophilus influenzae; test: Compound was evaluated for inhibitory activity against C.L Haemophilus influenzae ampicillin sensitive
[23] = test system: Staphylococcus aureus; test: Compound was evaluated for inhibitory activity against X1.1 Staphylococcus aureus penicillin sensitive
[24] = test system: Streptococcus pyogenes; test: Compound was evaluated for inhibitory activity against C203 Streptococcus pyogenes Gp.A
[25] = test system: Enterococcus faecalis; test: Compound was evaluated penicillin susceptible

Row | Structure (SMILES) | MIC [1] [µM] | MIC [2] [µM] | MIC [3] [µM] | MIC [4] [µM] | MIC [5] [µM] | MIC [6] [µM] | MIC [7] [µM] | MIC [8] [µM] | MIC [9] [µM] | MIC [10] [µM] | MIC [12] [µM] | MIC [13] [µM] | MIC [14] [µM] | MIC [15] [µM] | MIC [16] [µM] | MIC [17] [µM] | MIC [18] [µM] | MIC [19] [µM] | MIC [20] [µM] | MIC [21] [µM] | further results
1 | N[C@@H](C(=O)N[C@@H]1C(=O)N2C(C(=O)O)=C(C(F)(F)F)CC[C@H]12)c1cccc(Br)c1 | 16 (≈ 7.4 µg/mL) | 128 (≈ 59.2 µg/mL) | 1 (≈ 0.462 µg/mL) | 16 (≈ 7.4 µg/mL) | 32 (≈ 14.8 µg/mL) | 8 (≈ 3.7 µg/mL) | 128 (≈ 59.2 µg/mL) | 16 (≈ 7.4 µg/mL) | 4 (≈ 1.85 µg/mL) | 64 (≈ 29.6 µg/mL) | 4 (≈ 1.85 µg/mL) | 16 (≈ 7.4 µg/mL) | 32 (≈ 14.8 µg/mL) | 64 (≈ 29.6 µg/mL) | 16 (≈ 7.4 µg/mL) | 16 (≈ 7.4 µg/mL) | 0.25 (≈ 0.116 µg/mL) | 0.13 (≈ 0.0601 µg/mL) | 4 (≈ 1.85 µg/mL) | 16 (≈ 7.4 µg/mL) | MIC [11]: 8 µM (≈ 3.7 µg/mL); MIC [22]: 0.5 µM (≈ 0.231 µg/mL); MIC [23]: 1 µM (≈ 0.462 µg/mL); MIC [24]: 0.13 µM (≈ 0.0601 µg/mL)
2 | N[C@@H](C(=O)N[C@@H]1C(=O)N2C(C(=O)O)=C(C(F)(F)F)CC[C@H]12)c1ccc(O)cc1 | 64 (≈ 25.6 µg/mL) | 16 (≈ 6.39 µg/mL) | 0.5 (≈ 0.2 µg/mL) | 1 (≈ 0.399 µg/mL) | 0.5 (≈ 0.2 µg/mL) | 32 (≈ 12.8 µg/mL) | 2 (≈ 0.799 µg/mL) | 1 (≈ 0.399 µg/mL) | 0.5 (≈ 0.2 µg/mL) | 1 (≈ 0.399 µg/mL) | 0.06 (≈ 0.024 µg/mL) | 4 (≈ 1.6 µg/mL) | 4 (≈ 1.6 µg/mL) | 1 (≈ 0.399 µg/mL) | 16 (≈ 6.39 µg/mL) | 16 (≈ 6.39 µg/mL) | 0.06 (≈ 0.024 µg/mL) | 0.25 (≈ 0.0998 µg/mL) | 0.25 (≈ 0.0998 µg/mL) | 0.25 (≈ 0.0998 µg/mL) | MIC [25]: 32 µM (≈ 12.8 µg/mL); MIC [22]: 0.5 µM (≈ 0.2 µg/mL); MIC [23]: 0.5 µM (≈ 0.2 µg/mL); MIC [24]: 0.06 µM (≈ 0.024 µg/mL)
3 | N[C@@H](C(=O)N[C@@H]1C(=O)N2C(C(=O)O)=C(C(F)(F)F)CC[C@H]12)c1ccc(O)c(Cl)c1 | 8 (≈ 3.47 µg/mL) | 16 (≈ 6.94 µg/mL) | 0.5 (≈ 0.217 µg/mL) | 4 (≈ 1.74 µg/mL) | 1 (≈ 0.434 µg/mL) | 8 (≈ 3.47 µg/mL) | 4 (≈ 1.74 µg/mL) | 4 (≈ 1.74 µg/mL) | 1 (≈ 0.434 µg/mL) | 16 (≈ 6.94 µg/mL) | 0.125 (≈ 0.0542 µg/mL) | 4 (≈ 1.74 µg/mL) | 4 (≈ 1.74 µg/mL) | 8 (≈ 3.47 µg/mL) | 4 (≈ 1.74 µg/mL) | 32 (≈ 13.9 µg/mL) | 0.13 (≈ 0.0564 µg/mL) | 0.06 (≈ 0.026 µg/mL) | 0.5 (≈ 0.217 µg/mL) | 2 (≈ 0.868 µg/mL) | MIC [11]: 4 µM (≈ 1.74 µg/mL); MIC [22]: 0.5 µM (≈ 0.217 µg/mL); MIC [23]: 1 µM (≈ 0.434 µg/mL); MIC [24]: 0.03 µM (≈ 0.013 µg/mL)
4 | N[C@@H](C(=O)N[C@@H]1C(=O)N2C(C(=O)O)=C(Cl)CS[C@H]12)c1ccccc1 [CEFACLOR ANHYDROUS] | 128 (≈ 47.1 µg/mL) | 128 (≈ 47.1 µg/mL) | 1 (≈ 0.368 µg/mL) | 128 (≈ 47.1 µg/mL) | 8 (≈ 2.94 µg/mL) | 128 (≈ 47.1 µg/mL) | 64 (≈ 23.5 µg/mL) | 64 (≈ 23.5 µg/mL) | 2 (≈ 0.736 µg/mL) | 128 (≈ 47.1 µg/mL) | 0.5 (≈ 0.184 µg/mL) | 64 (≈ 23.5 µg/mL) | 128 (≈ 47.1 µg/mL) | 32 (≈ 11.8 µg/mL) | 128 (≈ 47.1 µg/mL) | 128 (≈ 47.1 µg/mL) | 0.25 (≈ 0.092 µg/mL) | 0.5 (≈ 0.184 µg/mL) | 1 (≈ 0.368 µg/mL) | 32 (≈ 11.8 µg/mL) | MIC [11]: 32 µM (≈ 11.8 µg/mL); MIC [22]: 2 µM (≈ 0.736 µg/mL); MIC [23]: 0.5 µM (≈ 0.184 µg/mL); MIC [24]: 0.06 µM (≈ 0.0221 µg/mL)
5 | N[C@@H](C(=O)N[C@@H]1C(=O)N2C(C(=O)O)=C(C(F)(F)F)CC[C@H]12)c1ccc(Cl)c(Cl)c1 | 64 (≈ 28.9 µg/mL) | 128 (≈ 57.9 µg/mL) | 2 (≈ 0.904 µg/mL) | 64 (≈ 28.9 µg/mL) | 128 (≈ 57.9 µg/mL) | 8 (≈ 3.62 µg/mL) | 128 (≈ 57.9 µg/mL) | 32 (≈ 14.5 µg/mL) | 16 (≈ 7.24 µg/mL) | 128 (≈ 57.9 µg/mL) | 32 (≈ 14.5 µg/mL) | 64 (≈ 28.9 µg/mL) | 128 (≈ 57.9 µg/mL) | 128 (≈ 57.9 µg/mL) | 32 (≈ 14.5 µg/mL) | 128 (≈ 57.9 µg/mL) | 1 (≈ 0.452 µg/mL) | 0.13 (≈ 0.0588 µg/mL) | 32 (≈ 14.5 µg/mL) | 128 (≈ 57.9 µg/mL) | MIC [11]: 16 µM (≈ 7.24 µg/mL); MIC [22]: 2 µM (≈ 0.904 µg/mL); MIC [23]: 0.5 µM (≈ 0.226 µg/mL); MIC [24]: 0.02 µM (≈ 0.00904 µg/mL)
6 | Cc1cccc([C@@H](N)C(=O)N[C@@H]2C(=O)N3C(C(=O)O)=C(C(F)(F)F)CC[C@H]23)c1 | 4 (≈ 1.59 µg/mL) | 32 (≈ 12.7 µg/mL) | 2 (≈ 0.795 µg/mL) | 16 (≈ 6.36 µg/mL) | 4 (≈ 1.59 µg/mL) | 4 (≈ 1.59 µg/mL) | 16 (≈ 6.36 µg/mL) | 8 (≈ 3.18 µg/mL) | 4 (≈ 1.59 µg/mL) | 32 (≈ 12.7 µg/mL) | 8 (≈ 3.18 µg/mL) | 16 (≈ 6.36 µg/mL) | 16 (≈ 6.36 µg/mL) | 16 (≈ 6.36 µg/mL) | 8 (≈ 3.18 µg/mL) | 32 (≈ 12.7 µg/mL) | 1 (≈ 0.397 µg/mL) | 0.25 (≈ 0.0993 µg/mL) | 2 (≈ 0.795 µg/mL) | 32 (≈ 12.7 µg/mL) | MIC [11]: 8 µM (≈ 3.18 µg/mL); MIC [22]: 1 µM (≈ 0.397 µg/mL); MIC [23]: 1 µM (≈ 0.397 µg/mL); MIC [24]: 0.03 µM (≈ 0.0119 µg/mL)
